Source: patent US20120202794A1 (priority 2011, published 2012)

Key:
HCV Replicon 1b = assay: HCV inhibition assay, HCV replicon 1b (Clone A or ET-lunet cells; RT-PCR or luciferase reporter); format: cell-based; conditions: Hepatitis C virus, 96 h, HCV replicon 1b; 4 days incubation; read-out: Replicon 1b potency EC90
In short: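 Clone A (1500/well) or ET-lunet (3000/well) replicon cells treated with serially diluted compounds (0.5% DMSO, no G418) for 4 days at 37 °C. HCV RNA measured by one-step RT-PCR normalized to rRNA (ΔΔCt) or by luciferase luminescence versus DMSO controls; EC50/EC90 by curve fitting.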

[1] = Cell cytotoxicity assay (MTS), CC90 as reported in Table 1, cell line not stated; format: cell-based; conditions: human; MTS assay; 8 days incubation; cell line not given
In short: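 Compounds, serially diluted from 100 μM, were incubated 8 days at 37° C with Huh7, HepG2 or BxPC3 (2×10^3 cells/well) or CEM (5×10^3 cells/well). Viability was read by MTS, 2 h, absorbance 490 nm. CC90 (90% inhibition) was taken against untreated cells.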

Question: Which results are given for `CC(C)C[C@H]1C(=O)N[C@@H](C(C)C)CN1C(=O)[C@@H]1C[C@H]1c1ccc(F)c(F)c1` [Compound 309, (3S,6S)-4-[(1R,2R)-2-(3,4-Difluoro-phenyl)-cyclopropanecarbonyl]-3-isobutyl-6-isopropyl-piperazin-2-one]?
Answer: EC90 (HCV Replicon 1b): 0.78 µM; CC90 at 8 days [1]: > 10 µM

Question: With `CC(C)C[C@H]1C(=O)N[C@@H](C2CCCC2)CN1C(=O)[C@@H]1C[C@H]1c1ccc(C(C)(C)C)cc1` [Compound 310, (3S,6S)-4-((1R,2R)-2-(4-(tert-butyl)phenyl)cyclopropanecarbonyl)-6-cyclopentyl-3-isobutylpiperazin-2-one] as the compound, how does the EC90 (HCV Replicon 1b) read?
Answer: 0.95 µM

Question: What about the CC90 at 8 days [1] of the same compound?
Answer: > 10 µM

Question: Which EC90 (HCV Replicon 1b) does the source give for `CC(C)C[C@H]1C(=O)N[C@@H](C(C)C)CN1C(=O)[C@@H]1C[C@H]1c1ccc(C(C)(C)C)cc1` [Compound 311, (3S,6S)-4-((1R,2R)-2-(4-(tert-butyl)phenyl)cyclopropanecarbonyl)-3-isobutyl-6-isopropylpiperazin-2-one] here?
Answer: 1.86 µM

Question: And the CC90 at 8 days [1]?
Answer: > 10 µM

Question: Which EC90 (HCV Replicon 1b) does the source give for `CC(C)C[C@H]1C(=O)N[C@@H](c2ccccc2)CN1C(=O)[C@@H]1C[C@H]1c1ccc(C(C)(C)C)cc1` [Compound 312, (3S,6S)-4-((1R,2R)-2-(4-(tert-butyl)phenyl)cyclopropanecarbonyl)-3-isobutyl-6-phenylpiperazin-2-one] here?
Answer: 1.13 µM

Question: And the CC90 at 8 days [1]?
Answer: > 10 µM

Question: With `CCC[C@H]1CN(C(=O)c2cc(-c3ccc(Cl)cc3)no2)[C@@H](CC(C)C)C(=O)N1` [Compound 313, (3S,6S)-4-(3-(4-chlorophenyl)isoxazole-5-carbonyl)-3-isobutyl-6-propylpiperazin-2-one] as the compound, how does the EC90 (HCV Replicon 1b) read?
Answer: 0.39 µM

Question: And the CC90 at 8 days [1]?
Answer: > 10 µM

Question: What does the source list for `CC(C)C[C@H]1C(=O)N[C@@H](C2CCCC2)CN1C(=O)c1cc(-c2ccc(Cl)cc2)no1` [Compound 314, (3S,6S)-4-(3-(4-chlorophenyl)isoxazole-5-carbonyl)-6-cyclopentyl-3-isobutyl-piperazin-2-one]?
Answer: EC90 (HCV Replicon 1b): 0.51 µM; CC90 at 8 days [1]: > 10 µM

Question: For `CC(C)C[C@H]1C(=O)N[C@@H](C2CCCCC2)CN1C(=O)c1cc(-c2ccc(Cl)cc2)no1` [Compound 315, (3S,6S)-4-(3-(4-chlorophenyl)isoxazole-5-carbonyl)-6-cyclohexyl-3-isobutylpiperazin-2-one], which EC90 (HCV Replicon 1b) is on record?
Answer: 0.7 µM

Question: What about the CC90 at 8 days [1] of the same compound?
Answer: > 10 µM

Question: With `CC(C)C[C@H]1C(=O)N[C@@H](c2ccccc2)CN1C(=O)c1cc(-c2ccc(Cl)cc2)no1` [Compound 316, (3S,6S)-4-(3-(4-chlorophenyl)isoxazole-5-carbonyl)-3-isobutyl-6-phenylpiperazin-2-one] as the compound, how does the EC90 (HCV Replicon 1b) read?
Answer: 0.28 µM

Question: And the CC90 at 8 days [1]?
Answer: > 10 µM

Question: For `CC(C)CC1=CN(C(=O)c2cc(-c3ccc(F)cc3)on2)[C@@H](CC(C)C)C(=O)N1` [Compound 317, (S)-4-(5-(4-Fluorophenyl)isoxazole-3-carbonyl)-3,6-diisobutyl-3,4-dihydro-pyrazin-2(1H)-one], which EC90 (HCV Replicon 1b) is on record?
Answer: 0.28 µM

Question: What about the CC90 at 8 days [1] of the same compound?
Answer: > 10 µM

Question: With `CC(C)C[C@H]1C(=O)N(C)[C@@H](c2ccccc2)CN1C(=O)c1cc(-c2ccc(F)cc2)on1` [Compound 321, (3S,6S)-4-(5-(4-fluorophenyl)isoxazole-3-carbonyl)-3-isobutyl-1-methyl-6-phenylpiperazin-2-one] as the compound, how does the EC90 (HCV Replicon 1b) read?
Answer: 6.45 µM

Question: What about the CC90 at 8 days [1] of the same compound?
Answer: > 10 µM

Question: Which EC90 (HCV Replicon 1b) does the source give for `CCN1C(=O)[C@H](CC(C)C)N(C(=O)c2cc(-c3ccc(F)cc3)on2)C[C@@H]1c1ccccc1` [Compound 322, (3S,6S)-1-ethyl-4-(5-(4-fluorophenyl)isoxazole-3-carbonyl)-3-isobutyl-6-phenylpiperazin-2-one] here?
Answer: > 10 µM

Question: What about the CC90 at 8 days [1] of the same compound?
Answer: > 10 µM

Question: Which EC90 (HCV Replicon 1b) does the source give for `CCCN1C(=O)[C@H](CC(C)C)N(C(=O)c2cc(-c3ccc(F)cc3)on2)C[C@@H]1c1ccccc1` [Compound 323, (3S,6S)-4-(5-(4-fluorophenyl)isoxazole-3-carbonyl)-3-isobutyl-6-phenyl-1-propylpiperazin-2-one] here?
Answer: > 10 µM

Question: What about the CC90 at 8 days [1] of the same compound?
Answer: > 10 µM

Question: Which results are given for `CC(C)C[C@H]1C(=O)N[C@@H](C2CCCC2)CN1C(=O)[C@@H]1C[C@H]1c1ccc(F)cc1F` [Compound 325, (3S,6S)-6-cyclopentyl-4-((1R,2R)-2-(2,4-difluorophenyl)cyclopropanecarbonyl)-3-isobutylpiperazin-2-one]?
Answer: EC90 (HCV Replicon 1b): > 10 µM; CC90 at 8 days [1]: > 10 µM

Question: For `CC(C)C[C@H]1C(=O)N[C@@H](C2CCCCC2)CN1C(=O)[C@@H]1C[C@H]1c1ccc(F)cc1F` [Compound 326, (3S,6S)-6-cyclohexyl-4-((1R,2R)-2-(2,4-difluorophenyl)cyclopropanecarbonyl)-3-isobutylpiperazin-2-one], which EC90 (HCV Replicon 1b) is on record?
Answer: > 10 µM

Question: And the CC90 at 8 days [1]?
Answer: > 10 µM

Question: Which EC90 (HCV Replicon 1b) does the source give for `CC(C)C[C@H]1C(=O)N[C@@H](c2ccccc2)CN1C(=O)[C@@H]1C[C@H]1c1ccc(F)cc1F` [Compound 327, (3S,6S)-4-[(1R,2R)-2-(2,4-difluoro-phenyl)-cyclopropanecarbonyl]-3-isobutyl-6-phenyl-piperazin-2-one] here?
Answer: 7.21 µM

Question: What about the CC90 at 8 days [1] of the same compound?
Answer: > 10 µM

Question: Which EC90 (HCV Replicon 1b) does the source give for `CC(C)C[C@H]1C(=O)N[C@@H](C2CCCCC2)CN1C(=O)[C@@H]1C[C@H]1c1ccc(C(C)(C)C)cc1` [Compound 328, (3S,6S)-4-((1R,2R)-2-(4-(tert-butyl)phenyl)cyclopropanecarbonyl)-6-cyclohexyl-3-isobutylpiperazin-2-one] here?
Answer: 2.43 µM

Question: And the CC90 at 8 days [1]?
Answer: > 10 µM

Question: What does the source list for `CC(C)C[C@H]1CN(C(=O)[C@@H]2C[C@H]2c2ccc(Br)cc2)[C@@H](CC(C)C)C(=O)N1` [Compound 329, (3S,6S)-4-((1R,2R)-2-(4-bromophenyl)cyclopropanecarbonyl)-3,6-diisobutylpiperazin-2-one]?
Answer: EC90 (HCV Replicon 1b): 0.52 µM; CC90 at 8 days [1]: > 10 µM

Question: For `CCC[C@H]1CN(C(=O)[C@@H]2C[C@H]2c2ccc(Br)cc2)[C@@H](CC(C)C)C(=O)N1` [Compound 331, (3S,6S)-4-[(1R,2R)-2-(4-Bromo-phenyl)-cyclopropanecarbonyl]-3-isobutyl-6-propyl-piperazin-2-one], which EC90 (HCV Replicon 1b) is on record?
Answer: 0.56 µM

Question: What about the CC90 at 8 days [1] of the same compound?
Answer: > 10 µM

Question: With `CC(C)C[C@H]1C(=O)N[C@@H](c2ccccc2)CN1C(=O)[C@@H]1C[C@H]1c1ccc(Br)cc1` [Compound 333, (3S,6S)-4-[(1R,2R)-2-(4-bromo-phenyl)-cyclopropanecarbonyl]-3-isobutyl-6-phenyl-piperazin-2-one] as the compound, how does the EC90 (HCV Replicon 1b) read?
Answer: 0.646 µM

Question: What about the CC90 at 8 days [1] of the same compound?
Answer: > 10 µM

Question: Which results are given for `CCC[C@H]1CN(C(=O)[C@@H]2C[C@H]2c2ccc(C(C)(C)C)cc2)[C@@H](CC(C)C)C(=O)N1` [Compound 334, (3S,6S)-4-((1R,2R)-2-(4-(tert-butyl)phenyl)cyclopropanecarbonyl)-3-isobutyl-6-propyl-pylpiperazin-2-one]?
Answer: EC90 (HCV Replicon 1b): 0.9 µM; CC90 at 8 days [1]: > 10 µM

Question: For `O=C1N[C@@H](c2ccccc2)CN(C(=O)c2cc(-c3ccc(F)cc3)on2)[C@H]1CC1CC1` [Compound 336, (3S,6S)-3-(cyclopropylmethyl)-4-(5-(4-fluorophenyl)isoxazole-3-carbonyl)-6-phenylpiperazin-2-one], which EC90 (HCV Replicon 1b) is on record?
Answer: 0.36 µM

Question: And the CC90 at 8 days [1]?
Answer: > 10 µM

Question: What does the source list for `O=C1N[C@@H](c2ccccc2)CN(C(=O)[C@@H]2C[C@H]2c2ccccc2)[C@H]1CC1CC1` [Compound 338, (3S,6S)-3-(cyclopropylmethyl)-6-phenyl-4-((1R,2R)-2-phenylcyclopropanecarbonyl)-piperazin-2-one]?
Answer: EC90 (HCV Replicon 1b): 5.07 µM; CC90 at 8 days [1]: > 10 µM
